# Assay results published in patent publication US20250009742A1 (priority 2021, published 2025).
# How the values were obtained:
# intracellular HBV DNA = assay: Real-time PCR for intracellular HBV DNA in HepAD38 cells; assay type: cell-based; conditions: Hepatitis B virus, HePAD38, 65 h, 65 hours treatment
# [1] = Cell viability assay (EZ-Cytox), cytotoxicity; assay type: cell-based; conditions: human, HepAD38 cells; for viability at 65 h, 100 µM: read-out: Cytotoxicity % Livability (@100 μM)
# Experimental: HepAD38 cells were cultured for 2 days in Dulbecco's Modified Eagle's medium (Welgene, LM001-05) supplemented with 10% FBS without tetracycline. […] After 65 hours of treatment, viability was measured using EZ-Cytox cell viability assay kit (Daeil Lab Service) according to the manufacturer's instructions. The absorbance was measured at 450 nm using a spectrophotometer (Spark, Tecan).
SMILES,IC50 (intracellular HBV DNA),CC50 at 65 h [1],"viability at 65 h, 100 µM [1]"
"COc1ncc(N(Cc2cc(C(F)(F)F)[nH]n2)C(=O)NC23CC(Cl)(C2)C3)cn1 [Example 6, 3-(3-chlorobicyclo[1.1.1]pentan-1-yl)-1-(2-methoxypyrimidin-5-yl)-1-((5-(trifluoromethyl)-1H-pyrazol-3-yl)methyl)urea]",> 1100 nM,> 100000 nM,100%
"COc1ccc(N(Cc2cc(C(F)F)[nH]n2)C(=O)Nc2ccc(F)c(Cl)c2)nn1 [Example 97, 3-(3-chloro-4-fluorophenyl)-1-((5-(difluoromethyl)-1H-pyrazol-3-yl)methyl)-1-(6-methoxypyridazin-3-yl)urea]",> 1100 nM,> 100000 nM,86.2%
"COc1ncc(N(Cc2cc(C#N)[nH]n2)C(=O)Nc2ccc(F)c(C(F)(F)F)c2)cn1 [Example 215, 1-((5-cyano-1H-pyrazol-3-yl)methyl)-3-(4-fluoro-3-(trifluoromethyl)phenyl)-1-(2-methoxypyrimidin-5-yl)urea]",20 nM,> 100000 nM,67%
"COc1ncc(N(Cc2cc(C(F)(F)F)[nH]n2)C(=O)Nc2ccc(F)c(C(F)F)n2)cn1 [Example 202, 3-(6-(difluoromethyl)-5-fluoropyridin-2-yl)-1-(2-methoxypyrimidin-5-yl)-1-((5-(trifluoromethyl)-1H-pyrazol-3-yl)methyl)urea]",46 nM,> 100000 nM,82.3%
"COc1cc(N(Cc2cc(C(F)(F)F)[nH]n2)C(=O)Nc2ccc(F)c(Cl)c2)cnc1C#N [Example 118, 3-(3-chloro-4-fluorophenyl)-1-(6-cyano-5-methoxypyridin-3-yl)-1-((5-(trifluoromethyl)-1H-pyrazol-3-yl)methyl)urea]",> 1100 nM,< 50000 nM,31.3%
"COc1ncc(N(Cc2n[nH]c(C(F)F)c2C(C)(C)O)C(=O)Nc2ccc(F)c(C(F)F)c2)cn1 [Example 198, 1-((5-(difluoromethyl)-4-(2-hydroxypropan-2-yl)-1H-pyrazol-3-yl)methyl)-3-(3-(difluoromethyl)-4-fluorophenyl)-1-(2-methoxypyrimidin-5-yl)urea]",> 1100 nM,> 100000 nM,102%
"C=C(C)c1c(CN(C(=O)Nc2ccc(F)c(Cl)c2)c2cnc(OC)nc2)n[nH]c1C(F)F [Example 93, 3-(3-chloro-4-fluorophenyl)-1-((5-(difluoromethyl)-4-(prop-1-en-2-yl)-1H-pyrazol-3-yl)methyl)-1-(2-methoxypyrimidin-5-yl)urea]",320 nM,> 100000 nM,–
"CS(=O)(=O)Nc1ccc(N(Cc2n[nH]c3c2CCCO3)C(=O)Nc2ccc(F)c(Cl)c2)cn1 [Example 18, N-(5-(3-(3-chloro-4-fluorophenyl)-1-((1,4,5,6-tetrahydropyrano[2,3-c]pyrazol-3-yl)methyl)ureido)pyridin-2-yl)methanesulfonamide]",> 1100 nM,> 100000 nM,–
"COc1ccc(N(Cc2n[nH]c(C(F)(F)F)c2C)C(=O)Nc2ccc(F)c(Cl)c2)cn1 [Example 78, 3-(3-chloro-4-fluorophenyl)-1-(6-methoxypyridin-3-yl)-1-((4-methyl-5-(trifluoromethyl)-1H-pyrazol-3-yl)methyl)urea]",30.3 nM,> 100000 nM,94%
"Cn1ccc(N(Cc2n[nH]c3c2CCCO3)C(=O)Nc2ccc(F)c(Cl)c2)n1 [Example 25, 3-(3-chloro-4-fluorophenyl)-1-(1-methyl-1H-pyrazol-3-yl)-1-((1,4,5,6-tetrahydropyrano[2,3-c]pyrazol-3-yl)methyl)urea]",> 1100 nM,> 100000 nM,100%
"CS(=O)(=O)Nc1ccc(N(Cc2n[nH]c3c2CCOC3)C(=O)Nc2ccc(F)c(Cl)c2)cn1 [Example 17, N-(5-(3-(3-chloro-4-fluorophenyl)-1-((1,4,5,7-tetrahydropyrano[3,4-c]pyrazol-3-yl)methyl)ureido)pyridin-2-yl)methanesulfonamide]",> 1100 nM,> 100000 nM,–
"COc1cc(N(Cc2n[nH]c3c2COC3)C(=O)Nc2ccc(F)c(Cl)c2)ccn1 [Example 70, 3-(3-chloro-4-fluorophenyl)-1-((4,6-dihydro-1H-furo[3,4-c]pyrazol-3-yl)methyl)-1-(2-methoxypyridin-4-yl)urea]",9 nM,> 100000 nM,98%
"COc1ncc(N(Cc2cc(C(F)(F)F)[nH]n2)C(=O)Nc2cc(C)c(F)c(Cl)n2)cn1 [Example 142, 3-(6-chloro-5-fluoro-4-methylpyridin-2-yl)-1-(2-methoxypyrimidin-5-yl)-1-((5-(trifluoromethyl)-1H-pyrazol-3-yl)methyl)urea]",100 nM,46900 nM,21%
"CNS(=O)(=O)c1ccc(N(Cc2n[nH]c3c2CCOC3)C(=O)Nc2ccc(F)c(Cl)c2)cc1 [Example 23, 4-(3-(3-chloro-4-fluorophenyl)-1-((1,4,5,7-tetrahydropyrano[3,4-c]pyrazol-3-yl)methyl)ureido)-N-methylbenzenesulfonamide]",> 1100 nM,> 100000 nM,–
"COc1ncc(N(Cc2cc(C(F)(F)F)[nH]n2)C(=O)Nc2cc(Cl)c(F)cn2)cn1 [Example 89, 3-(4-chloro-5-fluoropyridin-2-yl)-1-(2-methoxypyrimidin-5-yl)-1-((5-(trifluoromethyl)-1H-pyrazol-3-yl)methyl)urea]",50 nM,> 100000 nM,96%
"COc1ncc(N(Cc2cc(C(F)(F)F)[nH]n2)C(=O)Nc2ccc(F)c(Cl)c2)c(C)n1 [Example 28, 3-(3-chloro-4-fluorophenyl)-1-(2-methoxy-4-methylpyrimidin-5-yl)-1-((5-(trifluoromethyl)-1H-pyrazol-3-yl)methyl)urea]",60 nM,47200 nM,7%
"COc1ncc(N(Cc2n[nH]c(C(F)(F)F)c2CCO)C(=O)Nc2ccc(F)c(C(F)F)c2)cn1 [Example 193, 3-(3-(difluoromethyl)-4-fluorophenyl)-1-((4-(2-hydroxyethyl)-5-(trifluoromethyl)-1H-pyrazol-3-yl)methyl)-1-(2-methoxypyrimidin-5-yl)urea]",180 nM,> 100000 nM,–
"CS(=O)(=O)Nc1ccc(N(Cc2n[nH]c3c2CCCO3)C(=O)Nc2ccc(F)c(Cl)c2)cc1 [Example 19, N-(4-(3-(3-chloro-4-fluorophenyl)-1-((1,4,5,6-tetrahydropyrano[2,3-c]pyrazol-3-yl)methyl)ureido)phenyl)methanesulfonamide]",> 1100 nM,> 100000 nM,–
"COCc1c(CN(C(=O)Nc2ccc(F)c(Cl)c2)c2ccc(OC)nc2)n[nH]c1C(F)F [Example 82, 3-(3-chloro-4-fluorophenyl)-1-((5-(difluoromethyl)-4-(methoxymethyl)-1H-pyrazol-3-yl)methyl)-1-(6-methoxypyridin-3-yl)urea]",> 1100 nM,> 100000 nM,85.8%
"COc1ncc(N(Cc2cc(C(F)(F)F)[nH]n2)C(=O)Nc2cc(F)c(F)c(F)n2)cn1 [Example 224, 1-(2-methoxypyrimidin-5-yl)-1-((5-(trifluoromethyl)-1H-pyrazol-3-yl)methyl)-3-(4,5,6-trifluoropyridin-2-yl)urea]",210 nM,> 100000 nM,100%
"COc1ccc(N(Cc2cc(C(F)(F)F)[nH]n2)C(=O)Nc2ccc(F)c(F)c2)cn1 [Example 168, 3-(3,4-difluorophenyl)-1-(6-methoxypyridin-3-yl)-1-((5-(trifluoromethyl)-1H-pyrazol-3-yl)methyl)urea]",73 nM,> 100000 nM,59.8%
"COc1ncc(N(Cc2cc(C(F)(F)F)[nH]n2)C(=O)Nc2nccc(F)c2F)cn1 [Example 173, 3-(3,4-difluoropyridin-2-yl)-1-(2-methoxypyrimidin-5-yl)-1-((5-(trifluoromethyl)-1H-pyrazol-3-yl)methyl)urea]",> 1100 nM,> 100000 nM,–
"N#Cc1ccc(N(Cc2n[nH]c3c2CCOC3)C(=O)Nc2ccc(F)c(Cl)c2)cn1 [Example 127, 3-(3-chloro-4-fluorophenyl)-1-(6-cyanopyridin-3-yl)-1-((1,4,5,7-tetrahydropyrano[3,4-c]pyrazol-3-yl)methyl)urea]",510 nM,> 100000 nM,95%
"O=C(Nc1ccc(F)c(Cl)c1)N(Cc1n[nH]c2c1CCCO2)c1cc[nH]n1 [Example 135, 3-(3-chloro-4-fluorophenyl)-1-(1H-pyrazol-3-yl)-1-((1,4,5,6-tetrahydropyrano[2,3-c]pyrazol-3-yl)methyl)urea]",200 nM,> 100000 nM,–
"COc1ncc(N(Cc2cc(C(F)(F)F)[nH]n2)C(=O)Nc2cc(C(F)F)c(F)cn2)cn1 [Example 192, 3-(4-(difluoromethyl)-5-fluoropyridin-2-yl)-1-(2-methoxypyrimidin-5-yl)-1-((5-(trifluoromethyl)-1H-pyrazol-3-yl)methyl)urea]",59 nM,> 100000 nM,104%
"COc1ncc(N(Cc2n[nH]c(C(F)F)c2C(C)(C)O)C(=O)Nc2ccc(F)c(Cl)c2)cn1 [Example 92, 3-(3-chloro-4-fluorophenyl)-1-((5-(difluoromethyl)-4-(2-hydroxypropan-2-yl)-1H-pyrazol-3-yl)methyl)-1-(2-methoxypyrimidin-5-yl)urea]",> 1100 nM,> 100000 nM,–
"COc1ccc(N(Cc2cc(C(F)(F)F)[nH]n2)C(=O)Nc2ccc(F)c(C(F)F)c2)cn1 [Example 188, 3-(3-(difluoromethyl)-4-fluorophenyl)-1-(6-methoxypyridin-3-yl)-1-((5-(trifluoromethyl)-1H-pyrazol-3-yl)methyl)urea]",16 nM,> 100000 nM,97.9%
